According to patent US20020022587A1, “Methods for effecting neuroprotection” (priority 2000, published 2002):

How the values were obtained:
[1] = system: outwardly rectifying whole-cell K+ current of isolated PVN neurons; assay: Voltage clamp recordings from dissociated PVN neurons, voltage ramps; type: cell-based, rat; details: voltage ramps 100 mV/sec
Experimental: Male, Sprague-Dawley rats (150-250 g, Charles River, P.Q., Canada) were killed by decapitation, the brain was removed quickly from the skull and immersed in cold (1-4° C.) artificial cerebrospinal fluid (aCSF). The brain was blocked and 400 μm hypothalamic slices, which included the PVN, were prepared as described in Bains and Ferguson (NeuroReport 8(9-10):2101-05 (1997)). Slices were incubated in oxygenated aCSF (95% O2, 5% CO2) for at least 90 minutes at room temperature. Twenty minutes prior to recording, the slice was transferred into a modified interface type recording chamber and continuously perfused with aCSF at a rate of 1 ml/min.
For isolated neurons, pipettes of 1-4 MΩ were filled with a pipette solution containing (in mM): potassium-gluconate (130), EGTA(10), MgCl2 (1), HEPES (10), Na2ATP (4), GTP (0.1), adjusted to pH 7.2 with KOH. The standard bath solution contained (inmM): NaCl (140), KCl (5), MgCl2 (1), CaCl2 (2), HEPES (10), glucose (10) and […] tetrodotoxin (TTX) (Alamone Labs, Jerusalem, Israel). Signals were amplified, collected and processed using an Axopatch 200B (Axon Instruments) amplifier, a 1401plus A-D interface and Signal software from C.E.D. […]

[2] = system: parvocellular neurons of the paraventricular nucleus (PVN); assay: NMDA agonist excitotoxicity after PVN microinjection, histological count of surviving parvocellular neurons, Sprague-Dawley rats; type: in vivo, rat
Experimental: Experiments were performed on male Sprague-Dawley rats (150-525 g. Charles River, P.Q., Canada). The animals were anesthetized with sodium pentobarbitol (65 mg/kg, ip), placed in a stereotaxic frame and the skull exposed, and a small burr hole drilled in the skull such that a cannula electrode (tip diameter 150 μm) could be advanced into the region of the PVN according to the coordinates of Paxinos and Watson (−0.9 mm Bregma, 0.5 mm lateral, 7.5 mm ventral) (Paxinos and Watson, The Rat Brain in Stereotaxic Coordinates, Academic Press, New York (1982)). Each animal received a 1.0 μl microinjection to each PVN (2×0.5 μl) according to one of the following protocols, saline/saline, saline/NMDA, 4-AP/saline, 4-AP/NMDA, angiotensin-II/saline, angiotensin-II/NMDA, saralasin (SAR)/NMDA. […]
The blocks were mounted, covered with Tissue-Tek O.C.T. compound (Sakura) and flash frozen in 2-methyl butane (cooled by dry ice) for 45 seconds. […] Only those animals with microinjection within the boundaries of PVN were further analyzed.
Magnocellular neurons were differentiated from parvocellular neurons and cellular material by specific morphological characteristics (Sawchenko and Swanson, J. Comp. Neuro. 218:121-44 (1983)). […] Comparative analyses were performed whereby neurons were counted in 20 μm sections following the initial emergence of PVN. […]

[3] = system: magnocellular neurons of the paraventricular nucleus (PVN); assay: NMDA agonist excitotoxicity after PVN microinjection, histological count of surviving magnocellular neurons, Sprague-Dawley rats; type: in vivo, rat; details: counted three days later
Experimental: Experiments were performed on male Sprague-Dawley rats (150-525 g. Charles River, P.Q., Canada). The animals were anesthetized with sodium pentobarbitol (65 mg/kg, ip), placed in a stereotaxic frame and the skull exposed, and a small burr hole drilled in the skull such that a cannula electrode (tip diameter 150 μm) could be advanced into the region of the PVN according to the coordinates of Paxinos and Watson (−0.9 mm Bregma, 0.5 mm lateral, 7.5 mm ventral) (Paxinos and Watson, The Rat Brain in Stereotaxic Coordinates, Academic Press, New York (1982)). Each animal received a 1.0 μl microinjection to each PVN (2×0.5 μl) according to one of the following protocols, saline/saline, saline/NMDA, 4-AP/saline, 4-AP/NMDA, angiotensin-II/saline, angiotensin-II/NMDA, saralasin (SAR)/NMDA. The incision was then closed and the animal received the analgesic Buprenorphin (0.03 mg/kg, SQ) to aid postoperative recovery. Animals were allowed to recover for three days after which they were overdosed with sodium pentobarbitol (100 mg/kg) and perfused with 0.9% saline followed by 10% formalin through the left ventricle of the heart. The brain was removed, placed in formalin overnight at […]. The brain was then cut into a smaller block contained PVN and stored in a 30% sucrose, 0.1 M phosphate buffer at 4° C. for at least two days.
The blocks were mounted, covered with Tissue-Tek O.C.T. compound (Sakura) and flash frozen in 2-methyl butane (cooled by dry ice) for 45 seconds. Using the Frigocut 280 (Reichart Jung), 20 μm coronal sections were cut through the area of PVN. These sections were mounted and cresyl violet stained. The histological locations of the microinjection sites were verified at the light microscope level by an observer unaware of the experimental conditions. Only those animals with microinjection within the boundaries of PVN were further analyzed.
Magnocellular neurons were differentiated from parvocellular neurons and cellular material by specific morphological characteristics (Sawchenko and Swanson, J. Comp. Neuro. 218:121-44 (1983)). In addition to the anatomical location of the neuron within PVN, morphological size was used to further characterize neuronal type. Neurons with soma diameter of approximately 20-25 μm and intact nuclei were characterized as viable magnocellular neurons. Neurons with soma diameter of between 15 and 20 μm were not included in the study, as they could not be reliably classified as belonging to either subpopulation. Histological sections were viewed under high magnification (40×) at the light microscope level and a grid was superimposed over each area of PVN. […] Comparative analyses were performed whereby neurons were counted in 20 μm sections following the initial emergence of PVN. […]

[4] = system: parvocellular neurons of the paraventricular nucleus (PVN); assay: NMDA agonist excitotoxicity after PVN microinjection, surviving parvocellular neurons, spontaneously hypertensive rats; type: in vivo, rat; details: NMDA agonist alone into PVN, counted three days later
Excerpt: (§1) To determine whether magnocellular neurons in hypertensive rats with increased central angiotensin-II lose their resistance to excitotoxins as a consequence of endogenous angiotensin-II inhibiting the transient K^+ conductance, NMDA agonist or vehicle control was microinjected into PVN and surviving neurons were counted three days later. Following such treatment, a similar loss of parvocellular neurons to that found in normotensive animals was observed (82±2% surviving), while the resistance of magnocellular neurons was no longer observed in these animals (71±5% surviving) (see FIG. 3 for specific N values). To confirm that angiotensin-II was responsible for this loss of resistance, the NMDA agonist was next microinjected into PVN of spontaneously hypertensive rats immediately following the angiotensin-II receptor antagonist saralasin. […] These findings provide the first direct evidence that elevated angiotensin-II concentrations in the central nervous system of hypertensive animals may contribute to the increased susceptibility for stroke and that these actions can be prevented by central angiotensin-II receptor blockade. […]
(§2) The blocks were mounted, covered with Tissue-Tek O.C.T. compound (Sakura) and flash frozen in 2-methyl butane (cooled by dry ice) for 45 seconds. […] Only those animals with microinjection within the boundaries of PVN were further analyzed. […]

[5] = system: magnocellular neurons of the paraventricular nucleus (PVN); assay: NMDA agonist excitotoxicity after PVN microinjection, surviving magnocellular neurons, spontaneously hypertensive rats; type: in vivo, rat
Excerpt: as §1, §2

[6] = Li et al., Brain Res. Bull. 30:33-39 (1993); cited from earlier work
[7] = substance microinjected into PVN prior to NMDA agonist
[8] = substance microinjected into PVN alone

Nc1ccncc1 [4-AP, 4-aminopyridine]
inhibition of outwardly rectifying whole-cell current ([1]; 100 μM): inhibited
effect of 4-AP on parvocellular neuron population ([2]; 4-AP pretreatment before NMDA agonist microinjection): no significant effect
proportion of parvocellular neurons surviving ([2]; NMDA agonist microinjection, PVN treated with 4-AP): 80.9±3.0%
proportion of magnocellular neurons surviving [3, 7]: 78.9±4.6%

N[C@@H](C(=O)O)c1nnn[nH]1 [NMDA agonist, D-1-tetrazol-5yl-glycine]
parvocellular neurons surviving [4]: 82±2%
proportion of magnocellular neurons surviving [3, 8]: 100.0±2.4%
magnocellular neurons surviving ([5]; hypertensive rats, NMDA agonist alone into PVN, counted three days later): 71±5%

CNCC(=O)N[C@@H](CCCN=C(N)N)C(=O)N[C@H](C(=O)N[C@@H](Cc1ccc(O)cc1)C(=O)N[C@H](C(=O)N[C@@H](Cc1cnc[nH]1)C(=O)N1CCC[C@H]1C(=O)N[C@@H](C)C(=O)O)C(C)C)C(C)C [saralasin, Sar^1Ala^8-angiotensin-II]
crossing of the blood-brain barrier [6]: does not cross the blood-brain barrier
effect on cell viability ([5]; SHR PVN, saralasin by itself): no effect

a-dendrotoxin [a-DTX]
inhibition of outwardly rectifying whole-cell current, compared with 100 μM 4-AP ([1]; 1 μM): to an equal degree

angiotensin-II: octapeptide hormone, end product of the RAS, powerful arterial vasoconstrictor
proportion of magnocellular neurons surviving [3, 8]: 97.4±4.2%
proportion of magnocellular neurons surviving [3, 7]: 80.8±3.75%
